Assays:
[1] = tested on: human recombinant TG2 binding to FN and its 45 kDa and 70 kDa fragments; assay: Inhibition of purified TG2 binding to FN by TG2-derived peptides (ELISA); details: peptide 10 μM-1 mM, effect at higher concentrations
Procedure: 96-well Microtitre 96-well plates were coated overnight with either full length FN (5 μg/ml), its 45 kDa (54 μg/ml) or 70 kDa (45 μg/ml) fragments, in 50 mM Tris-HCl, pH 7.4 as previously described (Verderio et al., 2003b). Wells were blocked with 3% BSA (w/v) in TBS pH 7.6. After three washes with PBS pH7.4, competitive peptides diluted in PBS, 2 mM EDTA, pH 7.4 were added to the wells at concentrations from 10 μM-1 mM and incubated for 1 h at room temperature. Wells were washed three times with PBS pH7.4 and purified human recombinant TG2 was added at a final concentration of 2 μg/ml in the presence of the different concentrations of P2 or P2s peptides and incubated for 1 h at room temperature. After three washes with PBS pH7.4 bound TG2 was measured via ELISA as introduced above. […] The treated TG2 was then detected by the ELISA assay as described above.

[2] = tested on: p-ERK1/2; assay: Western blotting of p-ERK1/2 after cell adhesion assay; assay type: cell-based, human; details: HOB on FN, RGD, peptide 100 μg/ml
Procedure: (§1) Cell lysates containing 50 μg of protein were dissolved in 2× Laemmli buffer (Sigma-Aldrich Ltd, Dorset, UK) and separated by SDS-PAGE. Western blotting was performed using specific primary antibodies as described above. Primary antibodies were detected using the appropriate secondary antibody conjugated to horse radish peroxidase. Detection was by chemiluminescence (Amersham ECL™ Western Blotting System, GE Healthcare, UK).
(§2) The cell adhesion assay was carried out as previously described (Wang et al., 2010). […] Images of stained cells from non-overlapping fields of view were photographed at 20× magnification and analyzed using the imaging analysis program Scion Image (National Institute of Health). Cell attachment and spreading were quantified, and the number of cells per image was assessed as described previously (Telci et al., 2008). […] The mean number of attached cells form three wells was calculated and that of the control was considered as 100%. The mean number of attached cells (cell attachment) for each sample was then expressed as the percentage of cell attachment on FN. The mean percentage of attached cells that are spread (cell spreading) for each sample was determined separately, and the mean percentage of spread cells on FN control was expressed as 100%. […]

[3] = tested on: p-397 FAK; assay: Western blotting of p-397 FAK after cell adhesion assay; assay type: cell-based, human; details: HOB on FN, RGD, peptide 100 μg/ml
Procedure: as §1, §2

[4] = tested on: HOB cells; assay: Cell adhesion assay (attachment and spreading) on FN or TG-FN matrix with RGD or RAD peptide; assay type: cell-based, human; details: for effect on attachment and spreading of HOB cells on TG-FN in the presence of the RGD peptide: TG-FN matrix, peptide 100-300 μg/ml
Procedure: The cell adhesion assay was carried out as previously described (Wang et al., 2010). Briefly, 96-well plastic tissue culture plates were coated with 5 μg/ml FN in 50 mM Tris-HCl, pH 7.4 at 4° C. overnight, after washing three times with 100 μl of 50 mM Tris-HCl, pH7.4, gplTG (20 μg/ml) in 2 mM EDTA in PBS, pH 7.4 was added to the wells for 1 h at 37° C. and the wells were washed three times with 50 mM Tris-HCl, pH7.4. Serum-starved (for 16 h) HOB cells with different treatments as introduced below in serum-free medium were detached by trypsinization and then treated with trypsin inhibitor. Cells were washed three times with serum free medium and seeded onto either FN or TG-FN matrix for 20-40 min. Peptides P1 or scrambled P1 (P1s), were added at concentrations between 100 μg/ml and 300 μg/ml. […] Attached cells were washed once with PBS, pH 7.4 and then fixed with 3.7% paraformaldehyde, further permeabilised with 0.1% (v/v) Triton® X-100 detergent in PBS, and co-stained with May-Grunwald and Giemsa stains as described previously (Jones et al., 1997). Images of stained cells from non-overlapping fields of view were photographed at 20× magnification and analyzed using the imaging analysis program Scion Image (National Institute of Health). Cell attachment and spreading were quantified, and the number of cells per image was assessed as described previously (Telci et al., 2008). Cell attachment on FN without peptide was considered as the control value for all the experiments unless stated otherwise. The mean number of attached cells form three wells was calculated and that of the control was considered as 100%. The mean number of attached cells (cell attachment) for each sample was then expressed as the percentage of cell attachment on FN. The mean percentage of attached cells that are spread (cell spreading) for each sample was determined separately, and the mean percentage of spread cells on FN control was expressed as 100%. The mean percentage of spread cells for each sample was then normalised against that of FN control Cell attachment on FN without the RGD peptide was considered as the control value for most of the experiments unless stated otherwise The mean number of attached cells from three wells was calculated and that of the control was considered as 100%. The mean number of attached cells (cell attachment) for each sample was then expressed as the percentage of cell attachment on FN. The mean percentage of attached cells that are spread (cell spreading) for each sample was determined separately, and the mean percentage of spread cells on the FN control was expressed as 100%. The mean percentage of spread cells for each sample was then normalised against that of FN control Cell pre-treatments included: PKCα inhibitor Go6976 (5 μM) or GK21 peptide (8 μM) for 1 h in serum-free medium prior to cell detachment; heparinase (15 mU/ml) or chondroitinase (15 mU/ml) to cells in suspension in serum free medium for 1 h. For the detection of the signalling molecules via Western blotting, the cell adhesion assay was performed in 60 mm Petri dishes and cells were collected into cell lysis buffer (Santa Cruz, UK) as described previously and pre-cleared by centrifugation at 300×g for 10 min. Western blotting was performed with specific anti-p-397 FAK or p-ERK1/2 antibodies. Membranes were stripped (Telci et al., 2008) and total FAK and ERK1/2 detected using anti-FAK and anti-ERK1/2 antibodies as listed in Table 2, while α-tubulin was used as an equal loading standard (Wang et al., 2011).
Cell adhesion and spreading assays were performed as described above in Example 1 method ‘Cell adhesion assay’

[5] = HOB cells on FN, RGD peptide, tested 0.01-200 μg/ml

Sequence of human recombinant TG2 binding to FN and its 45 kDa and 70 kDa fragments (P02751 291-608 limits assumed): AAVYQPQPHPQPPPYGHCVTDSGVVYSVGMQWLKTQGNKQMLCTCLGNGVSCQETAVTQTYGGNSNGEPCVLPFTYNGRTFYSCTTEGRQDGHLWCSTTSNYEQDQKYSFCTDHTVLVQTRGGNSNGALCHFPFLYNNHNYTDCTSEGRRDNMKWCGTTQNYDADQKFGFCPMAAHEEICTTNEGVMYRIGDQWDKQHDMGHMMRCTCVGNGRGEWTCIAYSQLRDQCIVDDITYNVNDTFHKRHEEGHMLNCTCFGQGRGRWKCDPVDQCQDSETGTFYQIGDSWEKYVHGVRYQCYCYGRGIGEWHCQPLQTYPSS

inhibition of wild type TG2 binding to FN and its 45 and 70 kDa fragments [1] | Sequence | phosphorylation of p-ERK1/2 [2] | phosphorylation of p-FAK397 [3] | effect on attachment and spreading of HOB cells on TG-FN in the presence of the RGD peptide [4] | effect on binding of cells to FN alone ([4]; FN matrix, 100-300 μg/ml, compared to P1s) | concentration at which compensation of RGD-induced loss of cell adhesion started [4, 5] [µg/mL] | concentration of maximum compensation of RGD-induced loss of cell adhesion [4, 5] [µg/mL] | compensatory effect on RGD-induced loss of cell adhesion after heparinase pre-treatment ([4]; HOB cells treated with heparinase 15 mU/ml (not chondroitinase), FN) | compensatory effect on RGD-induced loss of cell adhesion after syndecan-4 siRNA ([4]; HOB cells, syndecan-4 siRNA (around 50% reduction in protein expression))
moderate but significant inhibition | AEELVLERCDLELE (listed as Homo sapiens) [P2, peptide corresponding to the N-terminal end of TG2] |  |  |  |  |  |  |  | 
No effect | EECRLAEELLEDVL (Scrambed Control Peptide) [P2s, scrambled P2 peptide, reference compound] |  |  |  |  |  |  |  | 
 | FNRADLKPRCGSSNKSR (Scrambled Control Peptide) [P1s, scrambled control peptide for P1, reference compound] | not found | not found | almost no effect |  |  |  |  | 
 | NPKFLKNAGRDCSRRSS (listed as Homo sapiens) [P1] | paralleled by the phosphorylation of p-FAK397 and p-ERK1/2 | paralleled by the phosphorylation of p-FAK397 | small, but not significant dose-dependent negative effect | small but significant enhancement of adhesion | 5 to 10 | 50 to 100 | abolished | comparable reduction in the compensatory effect

Source: patent US9657110B2, “Polypeptides and use thereof” (ASTON UNIVERSITY, priority 2011, dated 2017)
